Publication PMC6979384, “Characterization of the plant homeodomain (PHD) reader family for their histone tail interactions” (Epigenetics & Chromatin, 2020)
Where no end group is shown, it is not given here.

Tests used:
Assay in all cases: Histone peptide microarray
Type in all cases: binding, human
DIDO1 = details: DIDO1, GST-tagged; arrays performed twice, n of 4
Outline: (§1)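 Each reader, produced as a GST fusion and purified, was tested at 0.5 μM on synthetic histone peptides (293 in total) carrying single or combinatorial marks. Intensities averaged over four replicates.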

ING4 = details: ING4, GST-tagged; arrays performed twice, n of 4
Outline: as §1

TAF3 = details: TAF3, GST-tagged; arrays performed twice, n of 4
Outline: as §1

KDM5B (3) = details: KDM5B (3), GST-tagged; arrays performed twice, n of 4
Outline: as §1

MLL5 = details: MLL5, GST-tagged; arrays performed twice, n of 4
Outline: as §1

ING5 = details: ING5, GST-tagged; arrays performed twice, n of 4
Outline: as §1

CHD5 (PCC) = details: CHD5 (PCC), GST-tagged; arrays performed twice, n of 4
Outline: as §1

KDM4C (TTP) = details: KDM4C (TTP), GST-tagged; arrays performed twice, n of 4
Outline: as §1

PHF21A = details: PHF21A, GST-tagged; arrays performed twice, n of 4
Outline: as §1

KDM5B (1) = details: KDM5B (1), GST-tagged; arrays performed twice, n of 4
Outline: as §1

DPF2 (PPC2W2) = details: DPF2 (PPC2W2), GST-tagged; arrays performed twice, n of 4
Outline: as §1

AIRE (PP) = details: AIRE (PP), GST-tagged; arrays performed twice, n of 4
Outline: as §1

KDM5A (3) = details: KDM5A (3), GST-tagged; arrays performed twice, n of 4
Outline: as §1

ING2 = details: ING2, GST-tagged; arrays performed twice, n of 4
Outline: as §1

TRIM66 (PB) = details: TRIM66 (PB), GST-tagged; arrays performed twice, n of 4
Outline: as §1

KDM5A (1) = details: KDM5A (1), GST-tagged; arrays performed twice, n of 4
Outline: as §1

CHD5 (PPCC) = details: CHD5 (PPCC), GST-tagged; arrays performed twice, n of 4
Outline: as §1

PHF13 = details: PHF13, GST-tagged; arrays performed twice, n of 4
Outline: as §1

PHF23 = details: PHF23, GST-tagged; arrays performed twice, n of 4
Outline: as §1

CHD4 (PPCC) = details: CHD4 (PPCC), GST-tagged; arrays performed twice, n of 4
Outline: as §1

PHF2 = details: PHF2, GST-tagged; arrays performed twice, n of 4
Outline: as §1

BPTF (PB) = details: BPTF (PB), GST-tagged; arrays performed twice, n of 4
Outline: as §1

SP140L = details: SP140L, GST-tagged; arrays performed twice, n of 4
Outline: as §1

PHRF1 (RP) = details: PHRF1 (RP), GST-tagged; arrays performed twice, n of 4
Outline: as §1

RAG2 = details: RAG2, GST-tagged; arrays performed twice, n of 4
Outline: as §1

ING1 = details: ING1, GST-tagged; arrays performed twice, n of 4
Outline: as §1

PHF8 = details: PHF8, GST-tagged; arrays performed twice, n of 4
Outline: as §1

ING3 = details: ING3, GST-tagged; arrays performed twice, n of 4
Outline: as §1

MORC3 (CW) = details: MORC3 (CW), GST-tagged; arrays performed twice, n of 4
Outline: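 Readout is array binding signal, reported as the mean and standard deviation over four replicates. Each purified GST-fused PHD domain was incubated at 0.5 μM with a library of 293 modified histone peptides.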

KDM7A = details: KDM7A, GST-tagged; arrays performed twice, n of 4
Outline: as §1

BAZ2B = details: BAZ2B, GST-tagged; arrays performed twice, n of 4
Outline: as §1

| Array Heatmap value (peptide array binding signal) (DIDO1) | Array Heatmap value (peptide array binding signal) (ING4) | Array Heatmap value (peptide array binding signal) (TAF3) | Array Heatmap value (peptide array binding signal) (KDM5B (3)) | Array Heatmap value (peptide array binding signal) (MLL5) | Array Heatmap value (peptide array binding signal) (ING5) | Array Heatmap value (peptide array binding signal) (CHD5 (PCC)) | Array Heatmap value (peptide array binding signal) (KDM4C (TTP)) | Array Heatmap value (peptide array binding signal) (PHF21A) | Array Heatmap value (peptide array binding signal) (KDM5B (1)) | Array Heatmap value (peptide array binding signal) (DPF2 (PPC2W2)) | Array Heatmap value (peptide array binding signal) (AIRE (PP)) | Array Heatmap value (peptide array binding signal) (KDM5A (3)) | Array Heatmap value (peptide array binding signal) (ING2) | Array Heatmap value (peptide array binding signal) (TRIM66 (PB)) | Array Heatmap value (peptide array binding signal) (KDM5A (1)) | Array Heatmap value (peptide array binding signal) (CHD5 (PPCC)) | Array Heatmap value (peptide array binding signal) (PHF13) | Array Heatmap value (peptide array binding signal) (PHF23) | Array Heatmap value (peptide array binding signal) (CHD4 (PPCC)) | Substance | other results |
| --- | --- | --- | --- | --- | --- | --- | --- | --- | --- | --- | --- | --- | --- | --- | --- | --- | --- | --- | --- | --- | --- |
| 0.604 | 0.4824 | 0.2733 | 0.5497 | 0.5351 | 0.3842 | 0.8332 | 0.5414 | 0.5207 | 0.6403 | 0.6377 | 0.5505 | 0.3797 | 0.5908 | 0.5961 | 0.5024 | 0.5873 | 0.6532 | 0.5334 | 0.6135 | H4K12ac + K20ac: H4 1-23 | Array Heatmap value (peptide array binding signal) (PHF2): 0.4316; Array Heatmap value (peptide array binding signal) (BPTF (PB)): 0.3685; Array Heatmap value (peptide array binding signal) (SP140L): 0.3715; Array Heatmap value (peptide array binding signal) (PHRF1 (RP)): 0.4; Array Heatmap value (peptide array binding signal) (RAG2): 0.2498; Array Heatmap value (peptide array binding signal) (ING1): 0.4954; Array Heatmap value (peptide array binding signal) (PHF8): 0.3219; Array Heatmap value (peptide array binding signal) (ING3): 0.496; Array Heatmap value (peptide array binding signal) (MORC3 (CW)): 0.3391; Array Heatmap value (peptide array binding signal) (KDM7A): 0.4248; Array Heatmap value (peptide array binding signal) (BAZ2B): 0.5161 |
| 0.7417 | 0.4387 | 0.2598 | 0.4684 | 0.5826 | 0.347 | 0.8241 | 0.445 | 0.4355 | 0.6598 | 0.6849 | 0.4232 | 0.4384 | 0.6036 | 0.6047 | 0.4416 | 0.5319 | 0.611 | 0.5714 | 0.5868 | H4K12ac + KQ5,8,16,20: H4 1-23 (SGRGQGGQGLGK(Ac)GGAQRHRQVLR; UniProt P62805 2-24, looked up, variant K5Q K8Q K16Q K20Q) | Array Heatmap value (peptide array binding signal) (PHF2): 0.578; Array Heatmap value (peptide array binding signal) (BPTF (PB)): 0.3429; Array Heatmap value (peptide array binding signal) (SP140L): 0.3381; Array Heatmap value (peptide array binding signal) (PHRF1 (RP)): 0.4941; Array Heatmap value (peptide array binding signal) (RAG2): 0.2487; Array Heatmap value (peptide array binding signal) (ING1): 0.553; Array Heatmap value (peptide array binding signal) (PHF8): 0.3437; Array Heatmap value (peptide array binding signal) (ING3): 0.4727; Array Heatmap value (peptide array binding signal) (MORC3 (CW)): 0.3596; Array Heatmap value (peptide array binding signal) (KDM7A): 0.3252; Array Heatmap value (peptide array binding signal) (BAZ2B): 0.4631 |
| 0.5928 | 0.3881 | 0.2302 | 0.384 | 0.4865 | 0.2899 | 0.7543 | 0.4116 | 0.4184 | 0.6336 | 0.6545 | 0.4018 | 0.3966 | 0.5919 | 0.515 | 0.4194 | 0.4573 | 0.5207 | 0.4708 | 0.5189 | H4K12me1: H4 1-23 [Peptide H4K12me1] | Array Heatmap value (peptide array binding signal) (PHF2): 0.4095; Array Heatmap value (peptide array binding signal) (BPTF (PB)): 0.2963; Array Heatmap value (peptide array binding signal) (SP140L): 0.3238; Array Heatmap value (peptide array binding signal) (PHRF1 (RP)): 0.3919; Array Heatmap value (peptide array binding signal) (RAG2): 0.2114; Array Heatmap value (peptide array binding signal) (ING1): 0.4711; Array Heatmap value (peptide array binding signal) (PHF8): 0.3037; Array Heatmap value (peptide array binding signal) (ING3): 0.3932; Array Heatmap value (peptide array binding signal) (MORC3 (CW)): 0.309; Array Heatmap value (peptide array binding signal) (KDM7A): 0.3046; Array Heatmap value (peptide array binding signal) (BAZ2B): 0.3991 |
| 0.5747 | 0.4009 | 0.2578 | 0.5071 | 0.5228 | 0.3047 | 0.7369 | 0.4301 | 0.3977 | 0.6134 | 0.5691 | 0.423 | 0.374 | 0.5829 | 0.5321 | 0.4202 | 0.4774 | 0.5544 | 0.4966 | 0.5173 | H4K20ac: H4 1-23 [Peptide H4K20ac] | Array Heatmap value (peptide array binding signal) (PHF2): 0.4522; Array Heatmap value (peptide array binding signal) (BPTF (PB)): 0.3137; Array Heatmap value (peptide array binding signal) (SP140L): 0.3288; Array Heatmap value (peptide array binding signal) (PHRF1 (RP)): 0.3806; Array Heatmap value (peptide array binding signal) (RAG2): 0.2177; Array Heatmap value (peptide array binding signal) (ING1): 0.4651; Array Heatmap value (peptide array binding signal) (PHF8): 0.3218; Array Heatmap value (peptide array binding signal) (ING3): 0.4032; Array Heatmap value (peptide array binding signal) (MORC3 (CW)): 0.3311; Array Heatmap value (peptide array binding signal) (KDM7A): 0.3276; Array Heatmap value (peptide array binding signal) (BAZ2B): 0.4009 |
